Active and inactive are the calls of the source. The rule behind the calls is not given here.
Assays:
[1] = Cytotoxicity against human HCT 116 cells after 48 hrs by MTT assay; assay type: functional, cell-based; settings: HCT-116, 48 h
[2] = molecular target: Hypoxia-inducible factor 1-alpha (Homo sapiens) (UniProt Q16665); assay: Inhibition of HIF1alpha
[3] = tested on: Human immunodeficiency virus; assay: Antiviral activity against HIV upto 10 ug/mL; assay type: functional, organism-based

Chain of Hypoxia-inducible factor 1-alpha (Homo sapiens) (Q16665 whole entry, looked up): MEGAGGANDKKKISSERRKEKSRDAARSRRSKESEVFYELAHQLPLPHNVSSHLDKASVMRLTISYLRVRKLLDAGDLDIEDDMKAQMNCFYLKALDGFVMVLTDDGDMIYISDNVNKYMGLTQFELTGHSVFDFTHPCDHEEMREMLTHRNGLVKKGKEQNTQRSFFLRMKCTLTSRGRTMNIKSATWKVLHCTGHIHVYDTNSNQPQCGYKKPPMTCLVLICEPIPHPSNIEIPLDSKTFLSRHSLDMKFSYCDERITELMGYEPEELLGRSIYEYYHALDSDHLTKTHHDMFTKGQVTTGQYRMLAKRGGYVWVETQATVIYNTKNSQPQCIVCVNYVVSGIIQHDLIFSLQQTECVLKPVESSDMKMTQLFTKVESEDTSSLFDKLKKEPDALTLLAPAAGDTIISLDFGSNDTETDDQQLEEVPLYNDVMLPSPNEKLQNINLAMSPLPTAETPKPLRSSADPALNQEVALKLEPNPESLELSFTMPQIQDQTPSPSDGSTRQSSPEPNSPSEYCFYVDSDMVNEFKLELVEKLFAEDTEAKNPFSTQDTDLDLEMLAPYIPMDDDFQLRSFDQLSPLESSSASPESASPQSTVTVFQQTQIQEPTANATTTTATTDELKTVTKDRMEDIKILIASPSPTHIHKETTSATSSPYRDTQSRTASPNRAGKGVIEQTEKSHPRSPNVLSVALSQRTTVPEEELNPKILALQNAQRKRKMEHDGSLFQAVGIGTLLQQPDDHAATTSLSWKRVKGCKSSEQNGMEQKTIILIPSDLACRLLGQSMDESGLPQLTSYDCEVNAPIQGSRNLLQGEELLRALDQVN

Compound	EC50 [1] [µM]	Activity [2]	Activity [3]
CCC1CCC(=O)O[C@H]2[C@H](OC(C)=O)[C@H](OC(=O)c3ccccc3)[C@@]3(COC(C)=O)[C@H](OC(C)=O)[C@H](OC(C)=O)[C@@H]4[C@@H](OC(C)=O)[C@]3(O[C@]4(C)COC(=O)c3cccnc31)[C@@H]2C (stereo partly specified) [OPPOSITINE B]	26	inactive	inactive
CCC1CCC(=O)O[C@H]2[C@H](OC(C)=O)[C@H](OC(=O)c3ccccc3)[C@@]3(COC(C)=O)[C@H](OC(C)=O)[C@H](OC(C)=O)[C@@H]4[C@@H](OC(C)=O)[C@]3(O[C@]4(C)COC(=O)c3cccnc31)[C@@]2(C)O (stereo partly specified) [OPPOSITINE A]	27	inactive	inactive

— ChEMBL document CHEMBL1158146, “Oppositines A and B, sesquiterpene pyridine alkaloids from a Sri Lankan Pleurostylia opposita” (J Nat Prod, 2006)
